Experimental data taken from patent EP0600342A1, “Hispidospermidin and pharmaceutical compositions” (F. HOFFMANN-LA ROCHE AG, priority 1992, dated 1994).
Entries after “also recorded” stand apart in the source; their conditions may differ.

How the values were obtained:
[1] = test system: partially purified rat brain PLC; experiment: Inhibitory activity against PLC (hydrolysis of radiolabelled PI); format: biochemical; settings: 250 µM PI substrate, 2 mM CaCl₂, Tris-acetate buffer pH 5.5, 20 min at 30 °C; read-out: IC₅₀
Experimental: Inhibitory activity of hispidospermidin against PLC was measured. The assay mixture (0.1 ml) contained 200 mM Tris-acetate buffer (pH 5.5), 2 mM CaCl₂, 250 µM PI (suspended in the buffer, specific activity: 800 dpm/nmole) and enzyme. In the standard assay, 20 µl of inhibitor in 15 mM Tis-HCl buffer (pH 7.5) was added to the substrate suspension (50 µl). The reaction was started with addition of the enzyme solution prepared from partially purified rat brain PLC (30 µl, ca. 5 µg protein) and incubated for 20 min. at 30 °C. The reaction was terminated by adding 0.3 ml of unlabeled PI (200 µM) solution containing 1 mg/ml of bovine serum albumin and 1 mM EGTA, followed by adding of 0.3 ml of 7.5% ice cold trichloroacetic acid containing 3 mM CaCl₂. Under the conditions, the enzyme hydrolyzed about 30 % of substrate in the assay mixture. As a positive control showing 100% inhibition of PLC, 20 µl of 25 mM EDTA was added to the assay mixture. The incubation mixture was kept on ice for 10 min asn centrifuged at 1,700 x g for 10 min. The radioactivity of an aliquot (0.2 ml) of the supernatant was measured by liquid scintillation counter (ALOKA).

[2] = Solubility (physico-chemical properties); format: physicochemical; settings: qualitative, by solvent
[3] = Acute toxicity; format: in vivo; settings: no species, dose or route stated

SMILES	IC50 [1] [µM]	Solubility [2]	Acute toxicity [3]
C[C@@H]1CC[C@H]2[C@]13CC[C@@]1(C)O[C@]2(C)[C@@H](NCCCCN(C)CCCN(C)C)[C@H]1C3 [Hispidospermidin, hispidospermidin]	15.7	Soluble in MeOH, CHCl₃, acetone, acidic water; also recorded: Insoluble in water	not observed
NC[C@H]1O[C@H](O[C@H]2[C@H](O)[C@@H](O[C@H]3O[C@H](CO)[C@@H](O)[C@H](N)[C@H]3O)[C@H](N)C[C@@H]2N)[C@H](N)C[C@@H]1O [Tobramycin]	29.9		

More lines, main results first:

IC50 [1] [µM]	SMILES	Solubility [2]	Acute toxicity [3]
314	CCN(CC)CCCC(C)Nc1c2ccc(Cl)cc2nc2ccc(OC)cc12 (stereo not shown) [Quinacrine]		
59.3	NCCCNCCCCNCCCN [Sperimine]		
150	CN1CCN(CCCN2c3ccccc3Sc3ccc(C(F)(F)F)cc32)CC1 [Trifluoperazine]		
